Laboratory results taken from US20060287319A1, “Anti-viral compositions comprising heterocyclic substituted phenyl furans and related compounds” (priority 2005, published 2006).
Where two headings read alike, the source gives them in different places.

Assays:
HIV-1 = settings: previously reported; cited from earlier work
HIV-1IIIB in MT-2 cells = assay: Time-of-addition assay (p24 production); assay type: cell-based; settings: 0.1 μM
Experimental: FIG. 1 NB-206 and its analogs inhibited HIV-1 entry. Inhibition of HIV-1 entry was determined by a time-of-addition assay. NB-206 (2.5 μM) and its analog NB-231 (2.5 μM) were added to MT-2 cells at different intervals post-infection by HIV-1IIIB. AZT (0.1 μM), a reverse transcriptase inhibitor, was included as a control. Each sample was tested in triplicate.
Assessment of anti-HIV-1 infectivity. […] Reactions were terminated by addition of 1N H2SO4.
A time-of-addition assay was carried out to determine whether NB-206 and its analogs are HIV-1 entry inhibitors. MT-2 cells were incubated with HIV-1IIIB at 37° C. for 0, 1, 2, 3, 4, 6, and 8 hrs, respectively, before addition of NB-206 and NB-231 at 2.5 μM. AZT (0.1 μM) was used as a control. After culture for another 2 hrs, the cells were washed to remove the free-virus and compounds. The supernatants were collected on day 4 post-infection for measurement of p24 production.

HIV-1 IIIB [1] = settings: for EC50: read-out: EC50 (μM) (M ± SD) for inhibition of p24, HIV-1 IIIB, MT-2 cells
Experimental: Assessment of anti-HIV-1 infectivity. The inhibitory activity of compounds on infection by laboratory-adapted HIV-1 strains was determined as previously described (34). […] For the time-of-addition assay, compounds were added at various time post-infection. Then the culture supernatants were removed and fresh media were added. On the fourth day post-infection, 100 μl of culture supernatants were collected from each well, mixed with equal volumes of 5% Triton X-100 and assayed for p24 antigen, which was quantitated by ELISA (23). Briefly, the wells of polystyrene plates (Immulon 1B, Dynex Technology, Chantilly, Va.) were coated with HIV immunoglobulin (HIVIG), which was prepared from plasma of HIV-seropositive donors with high neutralizing titers against HIV-1IIIB as previously described (36) in 0.085 M carbonate-bicarbonate buffer (pH 9.6) at 4° C. overnight, followed by washes with PBS-T buffer (0.01M PBS containing 0.05% Tween-20) and blocking with PBS containing 1% dry fat-free milk (Bio-Rad Inc., Hercules, Calif.). Virus lysates were added to the wells and incubated at 37° C. for 1 h. […] Reactions were terminated by addition of 1N H2SO4. […] Recombinant protein p24 (US Biological, Swampscott, Mass.) was included for establishing standard dose response curve.

HIV-1 IIIB [2] = assay: HIV-1-mediated cytopathic effect (CPE); assay type: cell-based; settings: read-out: EC50 (μM) (M ± SD) for inhibition of CPE
Source text: We thus purchased these compounds and tested their inhibitory activity on: 1) HIV-1 replication (p24 production); 2) HIV-1-mediated cytopathic effect (CPE); and 3) HIV-1 Env-induced cell-cell fusion; and their cytotoxicity to MT-2 cells.

MT-2 cells = tested on: MT-2 cells
Experimental: Detection of in vitro cytotoxicity. The in vitro cytotoxicity of compounds for MT-2 cells was measured by a colorimetric method using XTT tetrazolium dye as previously described (21). Briefly, 100 μl of a compound at a graded concentration was added to equal volume of cells (5×10^5/ml) in a well of 96-well plates. After incubation at 37° C. for 4 days, XTT (1 mg/ml; […]; PolySciences, Inc., Warrington, Pa.) was added. Four hours later, the soluble intracellular formazan was quantitated colorimetrically at 450 nm with a reference at 570 nm.

[3] = tested on: HIV-1IIIB-infected H9 cells (H9/HIV-1IIIB) cocultured with MT-2 cells; settings: single dose 25 μg/ml, HTS
Experimental: Syncytium-formation assay for screening HIV-1 fusion inhibitors. HIV-1IIIB-infected H9 cells (H9/HIV-1IIIB) at 2×10^5/ml were cocultured with MT-2 cells (2×10^6/ml) in the presence of compounds to be screened (final concentration of compound: 25 μg/ml) in a 96-well plate at 37° C. for 2 days. HIV-1 induced syncytium formation was observed under an inverted microscope and scored as “−” (no syncytium was observed), “±” (about 50% syncytia were inhibited), and “+” (no syncytium formation was inhibited). The compounds scored with “−” and “±” were selected for further screening by ELISA for inhibitors against the gp41 six-helix bundle formation.

[4] = tested on: HIV-1IIIB infected H9 cells (H9/HIV-1IIIB) and MT-2 cells; assay: HIV-1 mediated cell-cell fusion (dye transfer assay); assay type: cell-based; settings: H9/HIV-1IIIB with MT-2 cells; read-out: EC50 (μM) (M ± SD) for inhibition of Cell fusion
Experimental: Inhibition of cell-cell fusion. A dye transfer assay was used for detection of HIV-1 mediated cell fusion as previously described (11,25,26). H9/HIV-1IIIB cells were labeled with a fluorescent reagent, Calcein-AM (Molecular Probes, Inc., Eugene, Oreg.) and then incubated with MT-2 cells (ratio=1:5) in 96-well plates at 37° C. for 2 hrs in the presence or absence of compounds tested. The fused and unfused Cacein-labeled HIV-1-infected cells were counted under an inverted fluorescence microscope (Zeiss, Germany) with an eyepiece micrometer disc. The percentage of inhibition of cell fusion and the IC50 values were calculated as previously described (11).

[5] = biological target: gp41 six-helix bundle formation between N36 and C34 (Human immunodeficiency virus type 1 group M subtype B, UniProt P04578)
Experimental: ELISA for screening for compounds that inhibit the gp41 six-helix bundle formation. A sandwich ELISA as previously described (27) was used to screen for compounds that inhibit the gp41 six-helix bundle formation. Briefly, peptide N36 (2 μM) was pre-incubated with a test compound at the indicated concentrations at 37° C. for 30 min, followed by addition of C34 (2 μM). In the control experiments, N36 was pre-incubated with C34 at 37° C. for 30 min, followed by addition of the test compound. After incubation at 37° C. for 30 min, the mixture was added to wells of a 96-well polystyrene plate (Costar, Corning Inc., Corning, N.Y.) which were precoated with IgG (2 μg/ml) purified from rabbit antisera directed against the N36/C34 mixture. […] Absorbance at 450 nm was measured using an ELISA reader (Ultra 384, Tecan, Research Triangle Park, N.C.). […] Chou (Sloan-Kettering Cancer Center, New York, N.Y.).
A model system of the gp41 six-helix bundle was established by mixing the N— and C-peptides at equal molar concentrations (16).

[6] = read-out: Cytotoxicity CC50 (μM) (M ± SD), MT-2 cells

gp41 six-helix bundle formation between N36 and C34, sequence (P04578 546-581): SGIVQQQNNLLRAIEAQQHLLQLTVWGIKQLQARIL

| Compound | EC50 (HIV-1 IIIB [1]) [µM] | SI (CC50/EC50) (HIV-1 IIIB [1]; selectivity index) | EC50 (HIV-1 IIIB [2]) [µM] | CC50 (MT-2 cells; [6]) [µM] | EC50 [4] [µM] | CC50 (MT-2 cells) [µM] | further results |
| --- | --- | --- | --- | --- | --- | --- | --- |
| COc1ccc(S(=O)(=O)[O-])cc1N=Nc1c(S(=O)(=O)[O-])cc2cc(Nc3nc(Nc4ccccc4)nc(Nc4cc(C)c(N=Nc5cc(S(=O)(=O)[O-])cc6cc(S(=O)(=O)[O-])cc(O)c56)cc4OC)n3)ccc2c1O.[Na+].[Na+].[Na+].[Na+] [ADS-J1] | – | – | – | – | – | – | anti-HIV-1 activities (HIV-1): micromolar levels |
| Cc1cn([C@H]2C[C@H](N=[N+]=[N-])[C@@H](CO)O2)c(=O)[nH]c1=O [AZT] | – | – | – | – | – | – | inhibition of HIV-1 replication, added 8 hrs post-infection (HIV-1IIIB in MT-2 cells): still effective |
| O=C(O)c1cccc(-c2ccc(/C=C3\SC(=S)N(c4cccc(Cl)c4)C3=O)o2)c1 [NB145] | 0.18 ± 0.02 | 261.5 | 0.18 ± 0.006 | 47.5 ± 6.37 | 1.77 ± 0.09 | – | inhibition of HIV-1 mediated syncytium formation [3]: completely inhibited; inhibition of six-helix bundle formation between N36 and C34 ([5]; single dose 25 μg/ml, HTS): completely inhibited |
| O=C(O)c1cccc(-c2ccc(/C=C3\SC(=S)N(c4cccc(C(F)(F)F)c4)C3=O)o2)c1 [NB154] | – | – | – | – | – | – | IC50 ([5]; read-out: IC50 for inhibition of six-helix bundle formation between N36 and C34, sandwich ELISA, FIG. 3): 1.56 ± 0.12 µM |
| Cc1cccc(NC(=O)CN2C(=O)S/C(=C\c3ccc(-c4ccc(Cl)c(C(=O)O)c4)o3)C2=O)c1 [NB207] | > 100 | – | > 100 | – | > 100 | > 464 | – |
| O=C(O)c1cc(-c2ccc(/C=C3\SC(=S)N(Cc4ccc(F)cc4)C3=O)o2)ccc1Cl [NB208] | 1.84 ± 0.654 | 29.77 | > 100 | 54.6 ± 15.3 | 6.668 ± 0.042 | – | – |
| Cc1cccc(NC(=O)CN2C(=O)S/C(=C\c3ccc(-c4cccc(C(=O)O)c4C)o3)C2=O)c1 [NB209] | > 100 | – | > 100 | – | > 100 | 113 ± 14.8 | – |
| COc1ccc(CN2C(=O)/C(=C/c3ccc(-c4ccc(Cl)c(C(=O)O)c4)o3)SC2=S)cc1 [NB211] | 1.13 ± 0.103 | – | 2.23 ± 0.515 | – | 68.6 ± 1.83 | 93.2 ± 4.41 | SI (CC50/EC50) (HIV-1 IIIB [1]): 82.24 |
| O=C(O)c1cc(-c2ccc(/C=C3\SC(=S)N(c4ccc(Cl)cc4)C3=O)o2)ccc1Cl [NB213] | 0.514 ± 0.128 | 181.04 | 3.7 ± 1.01 | 93 ± 12.8 | 14.7 ± 0.599 | – | – |
| CCN1C(=O)/C(=C/c2ccc(-c3ccc(Cl)c(C(=O)O)c3)o2)SC1=S [NB214] | 0.943 ± 0.144 | – | 3.53 ± 0.738 | – | 2.23 ± 0.082 | 44.8 ± 1.25 | SI (CC50/EC50) (HIV-1 IIIB [1]): 47.5 |
| C#CCN1C(=O)S/C(=C\c2ccc(-c3cccc(C(=O)O)c3)o2)C1=O [NB216] | > 100 | – | > 100 | – | > 100 | 55.3 ± 10 | – |
| O=C(O)c1cc(-c2ccc(/C=C3\SC(=S)N(C4CCCCC4)C3=O)o2)ccc1Cl [NB219] | 0.087 ± 0.04 | 78.97 | 0.401 ± 0.067 | 6.87 ± 0.29 | 4.3 ± 0.134 | – | – |
